Data published in ChEMBL document CHEMBL4020814, “Synthesis, Binding Mode, and Antihyperglycemic Activity of Potent and Selective (5-Imidazol-2-yl-4-phenylpyrimidin-2-yl)[2-(2-pyridylamino)ethyl]amine Inhibitors of Glycogen Synthase Kinase 3” (J Med Chem, 2017).

Tests used:
[1] = Inhibition of human GSK3 using biotin-CREB peptide substrate after 1 hr by scintillation counting method
[2] = Inhibition of GSK3 expressed in CHO-IR cells expressing human insulin receptor assessed as glycogen synthase activation after 30 mins by filter paper assay; format: cell-based, Cavia porcellus

SMILES | IC50 [1] [nM] | EC50 [2] [nM]
CN1CCN(C)C(CN(CCNc2ccc([N+](=O)[O-])cn2)c2ncc(-n3ccnc3)c(-c3ccc(Cl)cc3Cl)n2)C1 (centres undefined) | 121 | 
O=[N+]([O-])c1ccc(NCCNc2ncc(-n3ccnc3)c(-c3ccc(F)cc3)n2)nc1 | 200 | 
Cc1cc(NCCNc2ncc(-n3ccnc3)c(-c3ccc(Cl)cc3Cl)n2)nc(N)n1 | > 10000 | 
O=[N+]([O-])c1ccc(NCCN(CCc2ccccn2)c2ncc(-n3ccnc3)c(-c3ccc(Cl)cc3Cl)n2)nc1 | 113 | 
Clc1ccc(-c2nc(NCCNc3nc4ccc(Cl)cc4s3)ncc2-n2ccnc2)c(Cl)c1 | 527 | 12700
CN(C)c1nc(NCCNc2ncc(-n3ccnc3)c(-c3ccc(Cl)cc3Cl)n2)ccc1[N+](=O)[O-] | 1000 | 
N#Cc1ccc(-c2nc(NCCNc3ccc([N+](=O)[O-])cn3)ncc2C(=O)N2CCOCC2)cc1 | 161 | 
CCOC(=O)c1c(-c2ccc(C(N)=O)cc2)nc(NCCNc2ccc([N+](=O)[O-])cn2)nc1-c1ccc([N+](=O)[O-])cc1 | 150 | 18000
N#Cc1ccc(-c2nc(NCCNc3ccc([N+](=O)[O-])cn3)ncc2C(=O)OCc2ccccc2)cc1 | 190 | 
O=[N+]([O-])c1ccc(NCCNc2ncc(-n3ccnc3)c(-c3ccc(Cl)c(Cl)c3)n2)nc1 | 646 | 
CC(C)(C)OC(=O)N1CCN(c2ccc(-c3nc(NCCNc4ccc([N+](=O)[O-])cn4)ncc3-n3ccnc3)cc2)CC1 | 1930 | 
CCOC(=O)C1=C(c2ccc([N+](=O)[O-])cc2)N=C(NCCNc2ccc([N+](=O)[O-])cn2)NC1c1ccc(C(N)=O)cc1 (centres undefined) | 2000 | 
COc1ccccc1-c1nc(NCCNc2ccc([N+](=O)[O-])cn2)ncc1-n1ccnc1 | 884 | 
CNc1nc(NCCNc2ncc(-n3ccnc3)c(-c3ccc(Cl)cc3Cl)n2)ccc1[N+](=O)[O-] | 576 | 
CCOC(=O)C1=C(c2ccncc2)N=C(NCCNc2ccc([N+](=O)[O-])cn2)NC1c1ccc(C(N)=O)cc1 (centres undefined) | 3700 | 
COc1ccc(OC)c(-c2nc(NCCNc3ccc([N+](=O)[O-])cn3)ncc2-n2ccnc2)c1 | 4870 | 
COCCN(CCNc1ccc([N+](=O)[O-])cn1)c1ncc(-n2ccnc2)c(-c2ccc(Cl)cc2Cl)n1 | 175 | 
N#Cc1ccc(-c2nc(NCCNc3ccc([N+](=O)[O-])cn3)ncc2C(=O)N2CCNCC2)cc1 | 417 | > 10000
O=[N+]([O-])c1ccc(NCCNc2ncc(-n3ccnc3)c(-c3ccc(Cl)cc3Cl)n2)nc1O | 1000 | 

These reach a lower IC50 [1]. Values come first.

IC50 [1] [nM] | EC50 [2] [nM] | SMILES
27 | 3000 | CNC(=O)Nc1cnc(NCCNc2ccc([N+](=O)[O-])c(N)n2)nc1-c1ccc(Cl)cc1Cl
18 | 510 | Nc1nc(NCCNc2ncc(N3CCNCC3)c(-c3ccc(Cl)cc3Cl)n2)ccc1[N+](=O)[O-]
29 | > 10000 | N#Cc1ccc(-c2nc(NCCNc3ccc([N+](=O)[O-])cn3)ncc2C(=O)NCCO)cc1
61 | 8700 | CN(C)C(=O)c1cnc(NCCNc2ccc([N+](=O)[O-])cn2)nc1-c1ccc(C#N)cc1
71 | > 10000 | CN(C)CCNC(=O)c1cnc(NCCNc2ccc([N+](=O)[O-])cn2)nc1-c1ccc(C#N)cc1
32 | 110 | O=[N+]([O-])c1ccc(NCCN(CCN2CCCCCC2)c2ncc(-n3ccnc3)c(-c3ccc(Cl)cc3Cl)n2)nc1
7 | 10 | Nc1nc(NCCNc2ncc(-c3ccccn3)c(-c3ccc(Cl)cc3Cl)n2)ccc1[N+](=O)[O-]
1 | 250 | Cn1ccnc1-c1cnc(NCCNc2ccc([N+](=O)[O-])c(N)n2)nc1-c1ccc(Cl)cc1Cl
53 | 1200 | O=[N+]([O-])c1ccc(NCCNc2ncc(-n3ccnc3)c(-c3ccc(Cl)cc3)n2)nc1
33 | > 10000 | CNC(=O)c1cnc(NCCNc2ccc([N+](=O)[O-])cn2)nc1-c1ccc(C#N)cc1
56 | 1010 | N#Cc1ccc(NCCNc2ncc(-n3ccnc3)c(-c3ccc(Cl)cc3Cl)n2)nc1N
47 |  | N#Cc1ccc(-c2nc(NCCNc3ccc([N+](=O)[O-])cn3)ncc2C(=O)NCc2ccncc2)cc1
34 | 300 | Cc1ccc(-c2nc(NCCNc3ccc([N+](=O)[O-])cn3)ncc2-n2ccnc2)cc1
27 | 1070 | CC(C)(C)c1c[nH]c(-c2cnc(NCCNc3ccc([N+](=O)[O-])c(N)n3)nc2-c2ccc(Cl)cc2Cl)n1
15 | 280 | O=[N+]([O-])c1ccc(NCCN(CCN2CCOCC2)c2ncc(-n3ccnc3)c(-c3ccc(Cl)cc3Cl)n2)nc1
6 | 1580 | Nc1nc(NCCNc2ncc(N3CCCC3=O)c(-c3ccc(Cl)cc3Cl)n2)ccc1[N+](=O)[O-]
14 | 860 | CC(C)[C@H](N)C(=O)Nc1cnc(NCCNc2ccc([N+](=O)[O-])c(N)n2)nc1-c1ccc(Cl)cc1Cl
19 | 1000 | N#Cc1ccc(-c2nc(NCCNc3ccc([N+](=O)[O-])cn3)ncc2-n2cncn2)cc1
9 | 390 | CS(=O)(=O)Nc1cnc(NCCNc2ccc([N+](=O)[O-])c(N)n2)nc1-c1ccc(Cl)cc1Cl
